{"source": "patent US12667686B2", "about": "“Nitric oxide generating systems” (NOTA Laboratories, LLC, priority 2019, dated 2026)", "assay": "GSNO stability as a function of pH", "format": "physicochemical", "conditions": "alkaline conditions", "method": "The stability of the formulations was tested via UV/Vis analysis and/or via the electrochemical NOA."}
{"compound": "N[C@@H](CCC(=O)N[C@@H](CSN=O)C(=O)NCC(=O)O)C(=O)O", "note": "[GSNO, S-nitrosoglutathione]", "values": [{"measurement": "pH above which GSNO instability and hence NO generation begins to increase", "result": "above 8.5"}]}
